# Experimental data taken from patent publication US10370538B2 (priority 2015, dated 2019).
# “Also recorded” adds a separate entry of the source.
# Tests used:
# mycobacteria = settings: reported in the literature; cited from earlier work
# M. smegmatis = settings: 10 μM, room temperature, 1 h, washed
# Method: FIGS. 5A-5C illustrate freshly cultured E. coli (TOP10), S. pneumoniae, S. aureus, S. sanguinis, C. propinquum, C. striatum and M. smegmatis were incubated with PBS, 10 μM of TG, TG-DNB1 or TG-DNB2 at room temperature for 1 h. Cells were washed stringently with PBS for 3 times then fixed in 10% formalin solution for 30 min before vizualized with a confocal microscope (63×/oil, Ex/Em-FITC).
# The fold increasing (F/FPBS) was calculated by normalizing against the fluorescence intensity of PBS-treated cells. Experiments were performed twice with similar results.
# Freshly cultured E. coli (TOP10), E. coli expressing TEM1-β-lactamase, S. pneumoniae, S. aureus, S. sanguinis, C. propinquum, C. striatum, and M. smegmatis were incubated with PBS, 10 μM CDG1, CDG-DNB1, or CDG-DNB2 at room temperature for 1 h. Cells were washed 3 times PBS and then fixed in 10% formalin solution for 30 min before analyzed with a confocal microscope under 63×/oil, Ex/Em-FITC.
# The fluorescence intensity of PBS treated cells of each strain was arbitrarily set as 1 to show the fold increasing (F/FPBS).
# BCG [1] = format: cell-based, Mycobacterium bovis; settings: 10 μM, no washing
# BCG [2] = format: cell-based, Mycobacterium bovis; settings: 10 μM, room temperature, 1 h, washed
# [3] = system: E. coli expressing TEM1-β-lactamase; format: cell-based
# [4] = system: Mycobacterium tuberculosis H37Rv; format: cell-based
# [5] = system: patients' clinical sputum samples; experiment: staining of patients' processed sputum samples; format: cell-based; settings: 10 μM, 1 h, room temperature
# Method: FIG. 15 is a series of digital fluorescence confocal microscope images of CDG-DNB2 stained patients' processed sputum samples. Processed sputum samples were centrifuged and resuspended in 10 μM CDG-DNB2 for 1 h at room temperature. Cells were pelleted and washed stringently 3 times with PBS before fixation with 10% formalin for 30 min. Cells were further visualized using a confocal microscope at 20× or 60×/Ex 490-Em520.
# Clinical study with CDG-DNB2: Probe CDG-DNB2 has been evaluated in patients' clinical sputum samples: 4 positive and 4 negative samples.
# [6] = target: M. smegmatis DprE1 protein (Mycolicibacterium smegmatis, UniProt A0R607); experiment: fluorescence labeling of purified DprE1 protein by dye-DNB analogues in the presence of M. smegmatis lysate; format: biochemical; settings: for covalent fluorescence labeling of DprE1 protein: 10 μM probe, in the presence of M. smegmatis lysate
# M. smegmatis DprE1 protein, sequence (A0R607 whole entry): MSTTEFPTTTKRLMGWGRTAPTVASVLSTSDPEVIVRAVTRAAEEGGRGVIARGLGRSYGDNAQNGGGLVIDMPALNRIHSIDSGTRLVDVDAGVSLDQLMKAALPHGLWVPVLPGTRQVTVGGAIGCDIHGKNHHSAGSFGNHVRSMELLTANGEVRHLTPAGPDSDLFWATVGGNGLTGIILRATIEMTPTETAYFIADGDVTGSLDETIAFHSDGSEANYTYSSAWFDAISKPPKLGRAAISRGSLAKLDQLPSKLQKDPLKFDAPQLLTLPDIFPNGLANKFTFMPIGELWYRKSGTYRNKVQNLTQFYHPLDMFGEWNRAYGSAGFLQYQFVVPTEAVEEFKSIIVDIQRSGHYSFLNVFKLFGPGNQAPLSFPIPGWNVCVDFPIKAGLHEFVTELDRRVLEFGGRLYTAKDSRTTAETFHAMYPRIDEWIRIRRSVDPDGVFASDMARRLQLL
smiles,measurement,setting,value
C[C@H]1COC2(CCN(c3nc(=O)c4cc(C(F)(F)F)cc([N+](=O)[O-])c4s3)CC2)O1 [BTZ043],antimycobacterial activity,mycobacteria,potent antimycobacterial agents
COc1ccc(-c2c3ccc(=O)cc-3oc3cc(OCc4ccc(OCC5=C(C(=O)O)N6C(=O)[C@@H](NC(=O)Cc7ccccc7)[C@H]6SC5)cc4)ccc23)c(C)c1 [CDG-1],trapping of fluorescence signal in or on M. smegmatis cells,M. smegmatis,cannot be trapped in or on the cells
Cc1cc(OCCNC(=O)c2cc([N+](=O)[O-])cc([N+](=O)[O-])c2)ccc1-c1c2ccc(=O)cc-2oc2cc(OCc3ccc(OCC4=C(C(=O)O)N5C(=O)[C@@H](NC(=O)Cc6ccccc6)[C@H]5SC45CC5)cc3)ccc12 [CDG-DNB2],time at which prominent fluorescence was observed,BCG [1]; imaged every 2.5 min from 5 min,15 min
same,continuous enhancement of fluorescence till,BCG [1]; time at which imaging was stopped,75 min
same,staining of BCG (confocal),BCG [2],exhibited an intense (green) fluorescent signal
same,hydrolysis of probe by TEM1 β-lactamase-transformed E. coli,[3],can hydrolyze CDG-DNB2 and generate the uncaged fluorescent signal
same,retention of fluorescence in TEM1 β-lactamase-transformed E. coli,[3],cannot retain the fluorescence
same,"fold increase of fluorescence intensity over control levels, H37Rv",[4],about 20 fold
same,staining of H37Rv (confocal),[4],exhibited an intense (green) fluorescent signal
same,staining of negative sputum samples,[5]; 4 negative samples,all the negative samples had little background fluorescence
same,staining of positive sputum samples,[5]; 4 positive samples,4 positive samples all displayed green fluorescence-stained bacteria
"COc1ccc(OCCNC(=O)c2cc([N+](=O)[O-])cc([N+](=O)[O-])c2)cc1 [DNB1, reference compound]",DprE1 labeling by TG-DNB analogues after pre-incubation with DNB1,[6]; DprE1SM incubated with 50 μM DNB1 for one hour prior to addition of TG-DNB1,abolished the band
same,antimycobacterial activity,mycobacteria,potent antimycobacterial agents
Cc1cc(OCCn2cc(CNC(=O)c3cc([N+](=O)[O-])cc([N+](=O)[O-])c3)nn2)ccc1-c1c2ccc(=O)cc-2oc2cc(O)ccc12 [TG-DNB1],covalent fluorescence labeling of DprE1 protein,[6],significantly higher labeling capability than did the two mononitro compounds; also recorded: a fluorescent band was observed
Cc1cc(OCCNC(=O)c2cc([N+](=O)[O-])cc([N+](=O)[O-])c2)ccc1-c1c2ccc(=O)cc-2oc2cc(O)ccc12 [TG-DNB2],covalent fluorescence labeling of DprE1 protein,[6],significantly higher labeling capability than did the two mononitro compounds; also recorded: a fluorescent band was observed
